In the test the test system is Haemaphysalis longicornis (larvae). Description: Test for examining effect on Haemaphysalis longicornis (larvae), coated vial contact test. It counts as in vivo. Particulars: 100 ppm solution coated on plastic vial, 20 larvae, 24 hours after contact, 25° C., constant dark, relative humidity 80-100%. From the text: Test for Examining Effect on Haemaphysalis longicornis (larvae)

Broadly, the mortality is the percentage killed. A low value points to more survivors. Molecule `CC(C)CNC(=O)c1ccc(CCOc2cccc(-c3ccc(Cl)cc3Cl)c2)cc1` [4-187, N-isobutyl-4-(2-(3-(2,4-dichlorophenyl)phenoxy)ethyl)benzamide] had a mortality at 100 ppm not below 90%.
As for `CC(C)CNC(=O)c1ccc(CCOc2ccc(Cl)c(I)c2)cc1` [1-326, N-isobutyl-4-(2-(4-chloro-3-iodophenoxy)ethyl)benzamide], the mortality at 100 ppm was not below 90%.
Molecule `CC(C)CNC(=O)c1ccc(CCOc2ccc(OC(F)(F)F)cc2)cc1` [1-25, N-isobutyl-4-(2-(4-(trifluoromethoxy)phenoxy)ethyl)benzamide] came in with a mortality at 100 ppm not below 90%.
The molecule `CC(C)CNC(=O)c1ccc(CCOc2ccc(Cl)c(-c3ccc(Cl)cc3)c2)cc1` [4-115, N-isobutyl-4-(2-(4-chloro-3-(4-chlorophenyl)phenoxy)ethyl)benzamide] registered a mortality at 100 ppm not below 90%.
The molecule `CC(C)CNC(=O)c1ccc(CCOc2cccc(Br)c2)cc1` [1-9, N-isobutyl-4-(2-(3-bromophenoxy)ethyl)benzamide] had a mortality at 100 ppm not below 90%.
Under `CC(C)CNC(=O)c1ccc(CCOc2ccc(F)c(-c3ccccc3)c2)cc1` [4-6, N-isobutyl-4-(2-(4-fluoro-3-phenylphenoxy)ethyl)benzamide] stands not below 90%.
Take `CC(C)CNC(=O)c1ccc(CCOc2cccc(OC(F)(F)F)c2)cc1` [1-24, N-isobutyl-4-(2-(3-(trifluoromethoxy)phenoxy)ethyl)benzamide]: the mortality at 100 ppm is not below 90%.

For the origin of these results see US10299475B2, “Pesticide” (ISHIHARA SANGYO KAISHA, LTD., priority 2013, dated 2019).
